# In paper PMC6028883, “A highly glucose-tolerant GH1 β-glucosidase with greater conversion rate of soybean isoflavones in monogastric animals” (Journal of Industrial Microbiology & Biotechnology, 2018):
# Assays:
# Bgl3A = target: T1, Bgl3A (Evansstolkia leycettana, UniProt A0A1B0VFN7); experiment: inhibition of daidzin hydrolysis, HPLC; type: biochemical; settings: 0.5 mM daidzin, glucose printed as 10 mM but 80 mM stock diluted fourfold; pH 6.5, 37 °C, 5 min
# T1 construct: laboratory stock enzyme
# T1 sequence (A0A1B0VFN7 entry or part of it): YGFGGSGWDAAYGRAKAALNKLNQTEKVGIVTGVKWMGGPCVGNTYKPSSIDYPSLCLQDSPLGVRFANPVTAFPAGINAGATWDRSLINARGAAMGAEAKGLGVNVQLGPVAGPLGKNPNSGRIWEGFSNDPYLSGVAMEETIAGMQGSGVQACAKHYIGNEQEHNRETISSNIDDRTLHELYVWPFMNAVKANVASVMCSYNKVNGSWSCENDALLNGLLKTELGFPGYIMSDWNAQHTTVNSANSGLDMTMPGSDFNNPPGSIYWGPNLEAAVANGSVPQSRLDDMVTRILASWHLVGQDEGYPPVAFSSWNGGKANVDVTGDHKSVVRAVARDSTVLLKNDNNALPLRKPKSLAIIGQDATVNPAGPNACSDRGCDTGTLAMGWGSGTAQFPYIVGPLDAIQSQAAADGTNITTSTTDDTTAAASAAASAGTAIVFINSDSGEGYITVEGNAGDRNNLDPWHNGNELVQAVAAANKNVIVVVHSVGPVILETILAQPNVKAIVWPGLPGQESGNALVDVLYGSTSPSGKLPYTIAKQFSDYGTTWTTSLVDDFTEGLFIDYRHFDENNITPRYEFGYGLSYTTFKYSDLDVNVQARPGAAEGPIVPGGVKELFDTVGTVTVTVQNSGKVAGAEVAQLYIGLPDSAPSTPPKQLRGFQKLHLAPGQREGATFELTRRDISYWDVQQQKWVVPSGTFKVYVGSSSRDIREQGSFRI
# AsBG1 = AsBG1 (Alicyclobacillus sp. A4, UniProt A0A220YLM5); experiment: inhibition of cellobiose hydrolysis, ion exchange chromatography; type: biochemical; settings: read-out: % inhibition at 10 mM
# Chain of AsBG1 (A0A220YLM5 1-454 limits assumed): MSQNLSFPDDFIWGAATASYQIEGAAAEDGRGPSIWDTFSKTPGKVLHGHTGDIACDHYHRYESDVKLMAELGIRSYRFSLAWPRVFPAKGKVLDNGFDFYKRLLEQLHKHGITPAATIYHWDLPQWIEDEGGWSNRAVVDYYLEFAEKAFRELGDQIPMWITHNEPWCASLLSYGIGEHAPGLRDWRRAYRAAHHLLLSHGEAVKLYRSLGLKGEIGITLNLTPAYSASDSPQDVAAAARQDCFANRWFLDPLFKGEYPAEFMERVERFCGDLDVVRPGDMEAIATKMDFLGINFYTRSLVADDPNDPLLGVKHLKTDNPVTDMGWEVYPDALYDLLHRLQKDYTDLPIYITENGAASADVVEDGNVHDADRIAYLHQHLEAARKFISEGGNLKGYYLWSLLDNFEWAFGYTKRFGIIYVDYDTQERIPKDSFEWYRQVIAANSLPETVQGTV
# [1] = tested on: O=[N+]([O-])c1ccc(O[C@@H]2O[C@H](CO)[C@@H](O)[C@H](O)[C@H]2O)cc1; experiment: initial rate, Lineweaver-Burk plot; type: biochemical, Alicyclobacillus sp. A4; settings: pH 6.5, 55 °C, 5 min, 0.2-1.5 mM pNPG
Compound,"inhibition of daidzin hydrolysis, HPLC (Bgl3A)",inhibition at 10000 µM (AsBG1),Km [1]
OC[C@H]1OC(O)[C@H](O)[C@@H](O)[C@@H]1O (stereo partly drawn) [glucose],the conversion efficiency of daidzin by Bgl3A was seriously impeded by glucose,~60%,
AsBG1 (Alicyclobacillus sp. A4),,,400 µM
